Test results from patent US20260097073A1, “PROCESS FOR THE PREPARATION OF TUNGSTEN (VI) SALT HYDRATES” (OXOLIFE, S.L., priority 2022, published 2026).

Tests used:
[1] = Stability test: loss on drying with time; format: physicochemical
Source text: The present inventors confirmed the stability of the hydrate resulting from the process of the invention determining the loss on drying with time.
To that end a well-mixed sample of the sodium tungstate hydrate resulting from Example 2, was subjected to the following protocol. Dry clean glass-stopper, shallow weighing bottle under the same conditions to be employed in the determination. Cool to room temperature in a desiccator and take the weight accurately (W1) g. Transfer to the bottle 1 g of the sample, cover it and accurately weigh the bottle and the contents (W2) g. Place the loaded bottle in the drying chamber (oven), remove the stopper and leave it also in the chamber. Dry the sample to the specified time and temperature to a constant mass (105° C.). After drying is completed, open the drying chamber, close the bottle promptly and allow it to cool to room temperature (where applicable) in a desiccator before weighing. Weigh the bottle and the contents (W3) g. Calculation:
The loss on drying should be not more than 15% (w/w).

[2] = Drying of the hydrate salt: loss of the water molecules (IR); format: physicochemical
Experimental: In this case, the precipitation was performed by adding 2.0 volumes of either MeOH, EtOH, acetone or IPA at room temperature. After overnight stirring at room temperature, the suspensions were filtered at room temperature, and the cakes were washed by percolation with 0.4 volumes of H2O/solvent (1:1), and with 0.4 volumes of the corresponding solvent. […]
This phenomenon was observed when recording the IR spectra of the synthesized and dried products, as none of them show the stretching and bending bands typical of water molecules (FIG. 2).

Compound: O.O.[Na+].[Na+].[O]=[W](=[O])([O-])[O-] [Na2WO4·2H2O, sodium tungstate dihydrate]
- loss on drying with time ([1]; 6-month 40° C./75% HR): the loss was maintained
- loss on drying with time ([1]; 18-month test at 25° C./60% HR): the loss was maintained
- loss on drying ([1]; sodium tungstate hydrate resulting from Example 2, dried at 105° C. to constant mass, limit not more than 15% (w/w)): below 15%
- stability of the waters of hydration on drying ([2]; drying processes at 100-110° C., IR spectra): dehydration processes of the tungsten salt were detected
- fraction of the starting salt that lost the molecules of water ([2]; vacuum dried at a mild temperature of about 50° C.): ~94%
